Laboratory results taken from the supplement of paper PMC10307832.

Key:
Test in all cases: relative viability (nuclei count vs DMSO), 5 days (fraction); higher = more cells survive
A-427 = tested on: A-427
How it was run: (§1)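 Relative viability was taken as the ratio of nuclei in treated wells to nuclei in vehicle wells. Lung cancer cell lines in 1536-well plates received compounds by pin tool one day after seeding, either one drug alone or a fixed anchor-drug dose plus five library-drug doses (not always all listed) in √10 steps. Nuclei were counted on 4× images after 5 days of treatment, and values are medians of duplicate plates.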

ABC-1 = tested on: ABC-1
How it was run: as §1

COR-L23 = tested on: COR-L23
How it was run: as §1

EKVX = tested on: EKVX
How it was run: as §1

LC-2-ad = tested on: LC-2-ad
How it was run: as §1

LCLC-97TM1 = tested on: LCLC-97TM1
How it was run: as §1

LK-2 = tested on: LK-2
How it was run: as §1

LXF-289 = tested on: LXF-289
How it was run: as §1

NCI-H1437 = tested on: NCI-H1437
How it was run: as §1

NCI-H1666 = tested on: NCI-H1666
How it was run: as §1

NCI-H1792 = tested on: NCI-H1792
How it was run: as §1

NCI-H1915 = tested on: NCI-H1915
How it was run: as §1

NCI-H2085 = tested on: NCI-H2085
How it was run: as §1

NCI-H2087 = tested on: NCI-H2087
How it was run: as §1

NCI-H2126 = tested on: NCI-H2126
How it was run: as §1

NCI-H3122 = tested on: NCI-H3122
How it was run: as §1

NCI-H322M = tested on: NCI-H322M
How it was run: as §1

NCI-H460 = tested on: NCI-H460
How it was run: as §1

NCI-H647 = tested on: NCI-H647
How it was run: as §1

NCI-H661 = tested on: NCI-H661
How it was run: as §1

NCI-H727 = tested on: NCI-H727
How it was run: as §1

PC-14 = tested on: PC-14
How it was run: as §1

Nc1cccc2c1CN(C1CCC(=O)NC1=O)C2=O (configuration not stated) [Lenalidomide] + CC(=O)c1c(C)c2cnc(Nc3ccc(N4CCNCC4)cn3)nc2n(C2CCCC2)c1=O [Palbociclib] (partner 0.5 µM)
relative viability (A-427; first compound 0.253 µM): 0.529
relative viability (A-427; first compound 0.8 µM): 0.49
relative viability (A-427; first compound 2.53 µM): 0.548
relative viability (A-427; first compound 8 µM): 0.529
relative viability (ABC-1; first compound 0.253 µM): 0.577
relative viability (ABC-1; first compound 0.8 µM): 0.518
relative viability (ABC-1; first compound 2.53 µM): 0.904
relative viability (ABC-1; first compound 8 µM): 0.671
relative viability (COR-L23; first compound 0.253 µM): 0.342
relative viability (COR-L23; first compound 0.8 µM): 0.34
relative viability (COR-L23; first compound 2.53 µM): 0.308
relative viability (COR-L23; first compound 8 µM): 0.348
relative viability (EKVX; first compound 0.253 µM): 0.415
relative viability (EKVX; first compound 0.8 µM): 0.309
relative viability (EKVX; first compound 2.53 µM): 0.355
relative viability (EKVX; first compound 8 µM): 0.372
relative viability (LC-2-ad; first compound 0.253 µM): 0.549
relative viability (LC-2-ad; first compound 0.8 µM): 0.551
relative viability (LC-2-ad; first compound 2.53 µM): 0.533
relative viability (LC-2-ad; first compound 8 µM): 0.531
relative viability (LCLC-97TM1; first compound 0.253 µM): 0.229
relative viability (LCLC-97TM1; first compound 0.8 µM): 0.185
relative viability (LCLC-97TM1; first compound 2.53 µM): 0.209
relative viability (LCLC-97TM1; first compound 8 µM): 0.212
relative viability (LK-2; first compound 0.253 µM): 0.575
relative viability (LK-2; first compound 0.8 µM): 0.734
relative viability (LK-2; first compound 2.53 µM): 0.845
relative viability (LK-2; first compound 8 µM): 0.649
relative viability (LXF-289; first compound 0.253 µM): 0.616
relative viability (LXF-289; first compound 0.8 µM): 0.63
relative viability (LXF-289; first compound 2.53 µM): 0.657
relative viability (LXF-289; first compound 8 µM): 0.668
relative viability (NCI-H1437; first compound 0.253 µM): 0.331
relative viability (NCI-H1437; first compound 0.8 µM): 0.246
relative viability (NCI-H1437; first compound 2.53 µM): 0.359
relative viability (NCI-H1437; first compound 8 µM): 0.353
relative viability (NCI-H1666; first compound 0.253 µM): 0.647
relative viability (NCI-H1666; first compound 0.8 µM): 0.584
relative viability (NCI-H1666; first compound 2.53 µM): 0.646
relative viability (NCI-H1666; first compound 8 µM): 0.642
relative viability (NCI-H1792; first compound 0.253 µM): 0.656
relative viability (NCI-H1792; first compound 0.8 µM): 0.754
relative viability (NCI-H1792; first compound 2.53 µM): 0.745
relative viability (NCI-H1792; first compound 8 µM): 0.675
relative viability (NCI-H1915; first compound 0.253 µM): 0.549
relative viability (NCI-H1915; first compound 0.8 µM): 0.554
relative viability (NCI-H1915; first compound 2.53 µM): 0.578
relative viability (NCI-H1915; first compound 8 µM): 0.486
relative viability (NCI-H2085; first compound 0.253 µM): 0.48
relative viability (NCI-H2085; first compound 0.8 µM): 0.496
relative viability (NCI-H2085; first compound 2.53 µM): 0.432
relative viability (NCI-H2085; first compound 8 µM): 0.464
relative viability (NCI-H2087; first compound 0.253 µM): 0.248
relative viability (NCI-H2087; first compound 2.53 µM): 0.192
relative viability (NCI-H2087; first compound 8 µM): 0.196
relative viability (NCI-H2126; first compound 0.253 µM): 0.359
relative viability (NCI-H2126; first compound 0.8 µM): 0.383
relative viability (NCI-H2126; first compound 2.53 µM): 0.328
relative viability (NCI-H2126; first compound 8 µM): 0.332
relative viability (NCI-H3122; first compound 0.253 µM): 0.178
relative viability (NCI-H3122; first compound 0.8 µM): 0.213
relative viability (NCI-H3122; first compound 2.53 µM): 0.232
relative viability (NCI-H3122; first compound 8 µM): 0.195
relative viability (NCI-H322M; first compound 0.253 µM): 0.53
relative viability (NCI-H322M; first compound 0.8 µM): 0.521
relative viability (NCI-H322M; first compound 2.53 µM): 0.473
relative viability (NCI-H322M; first compound 8 µM): 0.488
relative viability (NCI-H460; first compound 0.253 µM): 0.179
relative viability (NCI-H460; first compound 0.8 µM): 0.0987
relative viability (NCI-H460; first compound 2.53 µM): 0.197
relative viability (NCI-H460; first compound 8 µM): 0.142
relative viability (NCI-H647; first compound 0.253 µM): 0.467
relative viability (NCI-H647; first compound 0.8 µM): 0.36
relative viability (NCI-H647; first compound 2.53 µM): 0.402
relative viability (NCI-H647; first compound 8 µM): 0.287
relative viability (NCI-H661; first compound 0.253 µM): 0.386
relative viability (NCI-H661; first compound 0.8 µM): 0.377
relative viability (NCI-H661; first compound 2.53 µM): 0.348
relative viability (NCI-H661; first compound 8 µM): 0.357
relative viability (NCI-H727; first compound 0.253 µM): 0.697
relative viability (NCI-H727; first compound 0.8 µM): 0.684
relative viability (NCI-H727; first compound 2.53 µM): 0.64
relative viability (NCI-H727; first compound 8 µM): 0.631
relative viability (PC-14; first compound 0.253 µM): 0.541
relative viability (PC-14; first compound 0.8 µM): 0.533
relative viability (PC-14; first compound 2.53 µM): 0.6
relative viability (PC-14; first compound 8 µM): 0.685
